19 compounds from patent US7989438B2, “Therapeutic compounds” (Istituto di Ricerche di Biologia Molecolare P. Angeletti SpA, priority 2007, dated 2011) can be followed below.

Usually IC50 stands for the point on the concentration scale where inhibition reaches its midpoint.

One assay concerns HCV subgenomic replication. In words: Cell based HCV replication assay (subgenomic replicon in Huh-7 cells, NS3 Cell-ELISA). As to conditions: Hepatitis C virus, Huh-7; Table 3, various macrocycles; activity ranges; read-out: IC50* (nM), Inhibition of HCV subgenomic replication. The source says:
Cell clones that stably maintain subgenomic HCV replicon were obtained by transfecting Huh-7 cells with an RNA replicon identical to I377neo/NS3-3′/wt described by Lohmann et al. (1999) (EMBL-genbank No. AJ242652), followed by selection with neomycin sulfate (G418). Viral replication was monitored by measuring the expression of the NS3 protein by an ELISA assay performed directly on cells grown in 96 wells microtiter plates (Cell-ELISA) using the anti-NS3 monoclonal antibody 10E5/24 (as described in published International application WO 02/59321). Cells were seeded into 96 well plates at a density of 10^4 cells per well in a final volume of 0.1 ml of DMEM/10% FCS. Two hours after plating, 50 μl of DMEM/10% FCS containing a 3× concentration of inhibitor were added, cells were incubated for 96 hours and then fixed for 10 minutes with ice-cold isopropanol. Each condition was tested in duplicate and average absorbance values were used for calculations. The cells were washed twice with PBS, blocked with 5% non-fat dry milk in PBS+0.1% Triton X100+0.02% SDS (PBSTS) and then incubated o/n at 4° C. with the 10E5/24 mab diluted in Milk/PBSTS. After washing 5 times with PBSTS, the cells were incubated for 3 hours at room temperature with Fc specific anti-mouse IgG conjugated to alkaline phosphatase (Sigma), diluted in Milk/PBSTS. After washing again as above, the reaction was developed with p-Nitrophenyl phosphate disodium substrate (Sigma) and the absorbance at 405/620 nm read at intervals. For calculations, we used data sets where samples incubated without inhibitors had absorbance values comprised between 1 and 1.5. The inhibitor concentration that reduced by 50% the expression of NS3 (IC50) was calculated by fitting the data to the Hill equation, Fraction inhibition=1−(Ai−b)/(A0−b)=[I]^n/([I]^n+[…]) where: • Ai=absorbance value of HBI10 cells supplemented with the indicated inhibitor concentration. • A0=absorbance value of HBI10 cells incubated without inhibitor. • b=absorbance value of Huh-7 cells plated at the same density in the same microtiter plates and incubated without inhibitor. • n=Hill coefficient.
On the technique in general: A replicon is a self-replicating genome or part of one, used to study replication in cells.
As to `O=C1NS(=O)(=O)N2CCN(CCN(CCF)[C@H]3COc4ccccc4-c4c(C5CCCCC5)c5ccc1cc5n4C3)CC2` [Example 308, (20R)-30-cyclohexyl-21-(2-fluoroethyl)-18-oxa-2-thia-1,3,10,21,24-pentaazahexacyclo[22.2.2.1^5,9.1^8,11.1^10,20.0^12,17]hentriaconta-5(31),6,8,11(30),12,14,16-heptaen-4-one 2,2-dioxide], the IC50 fell in the range of 25 to 150 nM.

The assay is the same for the next values; noted with them: Table 2, various macrocycles; activity ranges; read-out: IC50* (nM), Inhibition of HCV subgenomic replication.
As for `CCCc1cccc2c1OCC1Cn3c-2c(C2CCCCC2)c2ccc(cc23)C(=O)NS(=O)(=O)N(C)CCN(C)CCN1C` [Example 212, (7R)-14-cyclohexyl-18,21,24-trimethyl-4-propyl-7,8-dihydro-6H-7,11-(epiminoethanoiminoethanoiminothioiminomethano)-indolo[1,2-e][1,5]benzoxazocin-15-one 17,17-dioxide], the IC50 is 25 to 150 nM.
For the compound `CCCc1cccc2c1OCC1Cn3c-2c(C2CCCCC2)c2ccc(cc23)C(=O)NS(=O)(=O)N(C)CCN(C(C)C)CCN1C` [Example 213, (7R)-14-cyclohexyl-21-isopropyl-18,24-dimethyl-4-propyl-7,8-dihydro-6H-7,11-(epiminoethanoiminoethanoiminothioiminomethano)-indolo[1,2-e][1,5]benzoxazocin-15-one 17,17-dioxide], the half-maximal inhibitory concentration (IC50) lay in the range of 25 to 150 nM.
Still for that read-out and setting: under `CCN1CCN(C)C2COc3cc(OC)ccc3-c3c(C4CCCCC4)c4ccc(cc4n3C2)C(=O)NS(=O)(=O)N(C)CC1` [Example 210, (7R)-14-cyclohexyl-21-ethyl-3-methoxy-18,24-dimethyl-7,8-dihydro-6H-7,11-(epiminoethanoiminoethanoiminothioiminomethano)-indolo[1,2-e][1,5]benzoxazocin-15-one 17,17-dioxide] stands less than 25 nM.

Staying with this assay, now noted: Table 4, various macrocycles; activity ranges; read-out: IC50* (nM), Inhibition of HCV subgenomic replication.
In the case of `CN1CCN(C)C2COc3ccccc3-c3c(C4CCCCC4F)c4ccc(cc4n3C2)C(=O)NS(=O)(=O)N(C)CC1` (single isomer, unassigned) [Example 413, (7R)-14-[(1R,2S) or (1S,2R)-2-fluorocyclohexyl]-18,21,24-trimethyl-7,8-dihydro-6H-7,11-(epiminoethanoiminoethanoiminothioiminomethano)-indolo[1,2-e][1,5]benzoxazocin-15-one 17,17-dioxide], the IC50 was less than 25 nM.

The same assay, now with this note: Table 5, various macrocycles; activity ranges; read-out: IC50* (nM), Inhibition of HCV subgenomic replication.
For the compound `CN1CCCC2COc3c(OCCN4CCCC4)cccc3-c3c(C4CCCCC4)c4ccc(cc4n3C2)C(=O)NS(=O)(=O)N(C)CC1` [Example 511, (7R)-14-cyclohexyl-18,21-dimethyl-4-(2-pyrrolidin-1-ylethoxy)-7,8-dihydro-6H-7,11-(propanoiminoethanoiminothioiminomethano)indolo[1,2-e][1,5]benzoxazocin-15-one 17,17-dioxide], the IC50 was less than 25 nM.
Regarding `Cc1cccc2c1OCC1CCN(CCN(C)C)CCCN(C)S(=O)(=O)NC(=O)c3ccc4c(C5CCCCC5)c-2n(c4c3)C1` [Example 522, (7R)-14-cyclohexyl-22-[2-(dimethylamino)ethyl]-4,18-dimethyl-7,8-dihydro-6H-7,11-(ethanoiminopropanoiminothioiminomethano)indolo[1,2-e][1,5]benzoxazocin-15-one 17,17-dioxide], the IC50 is less than 25 nM.
On the same count and under the same terms, under `CN1CCC(C)(C)CCN(C)S(=O)(=O)NC(=O)c2ccc3c(C4CCCCC4)c4n(c3c2)CC1COc1ccccc1-4` [Example 512, (7R)-14-cyclohexyl-18,21,21,24-tetramethyl-7,8-dihydro-6H-7,11-(epiminopentanoiminothioiminomethano)indolo[1,2-e][1,5]benzoxazocin-15-one 17,17-dioxide] stands 150 to 500 nM.

Still in this assay, the particulars now being: Table A; activity ranges; Huh-7 replicon cells, 96 hours; read-out: IC50 (nM), Inhibition of HCV subgenomic replication.
For `CCN1CCN(C)C2COc3c(CN4CCCCC4)cccc3-c3c(C4CCCCC4)c4ccc(cc4n3C2)C(=O)NS(=O)(=O)N(C)CC1` [Compound A26, (7R)-14-cyclohexyl-21-ethyl-18,24-dimethyl-4-(piperidin-1-ylmethyl)-7,8-dihydro-6H-7,11-(epiminoethanoiminoethanoiminothioiminomethano)indolo[1,2-e][1,5]benzoxazocin-15-one 17,17-dioxide], the IC50 was less than 25 nM.
The same measure, in the same setting: under `CN1CCNCCN(C)S(=O)(=O)NC(=O)c2ccc3c(C4CCCCC4)c4n(c3c2)CC1COc1ccccc1-4` [Compound A1, (7R)-14-cyclohexyl-18,24-dimethyl-7,8-dihydro-6H-7,11-(epiminoethanoiminoethanoiminothioiminomethano)indolo[1,2-e][1,5]benzoxazocin-15-one 17,17-dioxide] stands less than 25 nM.
As for `CN1CCCN(C)S(=O)(=O)NC(=O)c2ccc3c(C4CCCCC4)c4n(c3c2)CC(CC1)COc1ccccc1-4` (single isomer, unassigned; (-)) [Compound A14, (−)-14-cyclohexyl-18,22-dimethyl-7,8-dihydro-6H-7,11-(ethanoiminopropanoiminothioiminomethano)indolo[1,2-e][1,5]benzoxazocin-15-one 17,17-dioxide], the IC50 was less than 25 nM.
On the same count and under the same terms, with `CN1CCCN(C)S(=O)(=O)NC(=O)c2ccc3c(C4CCCCC4)c4n(c3c2)CC(CC1)COc1ccccc1-4` (single isomer, unassigned; (+)) [Compound A13, (+)-14-cyclohexyl-18,22-dimethyl-7,8-dihydro-6H-7,11-(ethanoiminopropanoiminothioiminomethano)indolo[1,2-e][1,5]benzoxazocin-15-one 17,17-dioxide] the figure was 25 to 150 nM; with `CN1CCN(C)C2COc3ccccc3-c3c(C4CCCCC4)c4ccc(cc4n3C2)C(=O)NS(=O)(=O)N(C)C(C)(C)C1` [Compound A24, (7R)-14-cyclohexyl-18,19,19,21,24-pentamethyl-7,8-dihydro-6H-7,11-(epiminoethanoiminoethanoiminothioiminomethano)indolo[1,2-e][1,5]benzoxazocin-15-one 17,17-dioxide], 25 to 150 nM.
On the same count and under the same terms, with `CN1CCN(C)[C@H]2COc3ccccc3-c3c(C4CCCCC4)c4ccc(cc4n3C2)C(=O)NS(=O)(=O)N(CC2CC2)CC1` [Compound A5, (7R)-14-cyclohexyl-18-(cyclopropylmethyl)-21,24-dimethyl-7,8-dihydro-6H-7,11-(epiminoethanoiminoethanoiminothioiminomethano)indolo[1,2-e][1,5]benzoxazocin-15-one 17,17-dioxide] the figure was less than 25 nM; with `COc1ccc2c(c1)OCC1CCCN(C)CCN(C)S(=O)(=O)NC(=O)c3ccc4c(C5CCCCC5)c-2n(c4c3)C1` (single isomer, unassigned; (-)) [Compound A37, (−)-14-cyclohexyl-3-methoxy-18,21-dimethyl-7,8-dihydro-6H-7,11-(propanoiminoethanoiminothioiminomethano)indolo[1,2-e][1,5]benzoxazocin-15-one 17,17-dioxide], less than 25 nM; with “(7R)-14-cyclohexyl-4-methoxy-18,22-dimethyl-7,8-dihydro-6H-7,11-(ethanoiminopropanoiminothioiminomethano)indolo[1,2-e][1,5]benzoxazocin-15-one 17,17-dioxide [Compound A33]”, less than 25 nM.
The same measure, in the same setting: with `CCN1CCN(C)C2COc3c(OC)cccc3-c3c(C4CCCCC4)c4ccc(cc4n3C2)C(=O)NS(=O)(=O)N(C)CC1` [Compound A28, (7R)-14-cyclohexyl-21-ethyl-4-methoxy-18,24-dimethyl-7,8-dihydro-6H-7,11-(epiminoethanoiminoethanoiminothioiminomethano)indolo[1,2-e][1,5]benzoxazocin-15-one 17,17-dioxide] the figure was less than 25 nM; with `CN1CCN(C)C2COc3cc(F)ccc3-c3c(C4CCCCC4)c4ccc(cc4n3C2)C(=O)NS(=O)(=O)N(C)CC1` [Compound A11, (7R)-14-cyclohexyl-3-fluoro-18,21,24-trimethyl-7,8-dihydro-6H-7,11-(epiminoethanoiminoethanoiminothioiminomethano)indolo[1,2-e][1,5]benzoxazocin-15-one 17,17-dioxide], less than 25 nM; with `CC(C)N1CCN(C)C2COc3ccccc3-c3c(C4CCCCC4)c4ccc(cc4n3C2)C(=O)NS(=O)(=O)N(C)CC1` [Compound A4, (7R)-14-cyclohexyl-21-isopropyl-18,24-dimethyl-7,8-dihydro-6H-7,11-(epiminoethanoiminoethanoiminothioiminomethano)indolo[1,2-e][1,5]benzoxazocin-15-one 17,17-dioxide], less than 25 nM.
